Laboratory results published in the NIST ThermoML archive (doi:10.1016/j.fluid.2015.10.034).

Details: Liquid, Frequency=8 MHz, Pulse-echo method

[2H]O[2H] [water-d2]
Details | speed of sound [m/s]
278.21 K, 150.19 kPa | 1326
278.21 K, 152.01 kPa | 1326
278.21 K, 5021.9 kPa | 1332.5
278.21 K, 5025.1 kPa | 1332.5
278.21 K, 9983.4 kPa | 1339.3
278.21 K, 9986 kPa | 1339.3
278.21 K, 15113 kPa | 1346.4
278.21 K, 15117 kPa | 1346.5
278.21 K, 20109 kPa | 1353.6
278.21 K, 20152 kPa | 1353.7
278.22 K, 2465.2 kPa | 1329.1
278.22 K, 2465.6 kPa | 1329.1
283.21 K, 154.9 kPa | 1347.8
283.21 K, 156.96 kPa | 1347.8
283.21 K, 2494.8 kPa | 1351.1
283.21 K, 2498 kPa | 1351.1
283.21 K, 5043.1 kPa | 1354.6
283.21 K, 5043.6 kPa | 1354.6
283.21 K, 9942.4 kPa | 1361.6
283.21 K, 9943.6 kPa | 1361.6
283.21 K, 15142 kPa | 1369
283.21 K, 15143 kPa | 1369.1
283.21 K, 20195 kPa | 1376.4
283.21 K, 20198 kPa | 1376.4
293.2 K, 179.82 kPa | 1384.1
293.2 K, 181.19 kPa | 1384.1
293.2 K, 2473.1 kPa | 1387.5
293.2 K, 2473.2 kPa | 1387.5
293.2 K, 5119.8 kPa | 1391.4
293.2 K, 5125.6 kPa | 1391.4
293.2 K, 10078 kPa | 1398.8
293.2 K, 10086 kPa | 1398.8
293.2 K, 15047 kPa | 1406.2
293.2 K, 15052 kPa | 1406.2
293.2 K, 20333 kPa | 1414.2
293.2 K, 20361 kPa | 1414.2
313.2 K, 109.61 kPa | 1432.5
313.2 K, 109.88 kPa | 1432.5
313.2 K, 2458.2 kPa | 1436.3
313.2 K, 2468.5 kPa | 1436.3
313.2 K, 5110.5 kPa | 1440.5
313.2 K, 5110.8 kPa | 1440.5
313.2 K, 15060 kPa | 1456.3
313.2 K, 20267 kPa | 1464.5
313.2 K, 20276 kPa | 1464.6
333.2 K, 195.58 kPa | 1456.2
333.2 K, 211.29 kPa | 1456.2
333.2 K, 2499.2 kPa | 1460.1
333.2 K, 2499.6 kPa | 1460.1
333.2 K, 5054.7 kPa | 1464.5
333.2 K, 5055 kPa | 1464.5
333.2 K, 10044 kPa | 1473
333.2 K, 10071 kPa | 1473.1
333.2 K, 20122 kPa | 1490
333.2 K, 20126 kPa | 1490
353.2 K, 142.15 kPa | 1460.6
353.2 K, 144.59 kPa | 1460.6
353.2 K, 2522.3 kPa | 1465.1
353.2 K, 2528 kPa | 1465
353.2 K, 5032.1 kPa | 1469.7
353.2 K, 5034.1 kPa | 1469.7
353.2 K, 10091 kPa | 1479
353.2 K, 10094 kPa | 1479.1
353.2 K, 15060 kPa | 1488
353.2 K, 15062 kPa | 1488.1
